“Also recorded” adds a separate entry of the source. Residues, ends and D or L forms follow the SMILES beside them. No end group written: not given here. *: point of attachment. Biotin = O=C1N[C@H]2[C@H](CS[C@H]2CCCCC(=O)*)N1
Assays:
PAI-1-uPA complex = PAI-1-uPA complex (Homo sapiens, UniProt P00749+P05121); assay: ELISA, binding to immobilized PAI-1-uPA complex; conditions: for Binding to immobilized PAI-1-uPA complex: plates coated with 2 μg mL^−1
Experimental: (§1) Plates coated with 2 μg mL^−1 integrin α5β1, PAI-1, or PAI-1-uPA complex (37 °C, 10 min) were incubated with B-Vi45-51, Vi, or 100 nM ViH46A, ViR48A, or ViH46A/R48A. Competition used excess Src, alanine mutants, or THGR peptides. Detection used horseradish peroxidase antibodies and 3,3′,5,5′-tetramethylbenzidine.

integrin α5 = assay: Pull-down and Western blot, integrin α5; format: binding, human (HUVEC lysates)
Experimental: (§2) To test whether Vi’s HGR motif binds integrin α5β1, human umbilical vein endothelial cells (HUVECs) were treated with a biotinylated peptide comprising residues 45 to 51 (B-Vi45-51) and subjected to pull-down and Western blot.
(§3) HUVECs treated with 500 nM B-Vi45-51, 20 ng mL^−1 bFGF, and 25 ng mL^−1 VEGF for 1 h were lysated in radioimmunoprecipitation assay, sonicated, incubated 30 min at 37 °C, and pulled down with Dynabeads Streptavidin T1 (Thermo). Eluates were analyzed by a Western blot for integrin α5, PAI-1, and uPAR.

integrin α5β1 [1] = biological target: T1, integrin α5β1 (Homo sapiens, UniProt P05556+P08648); assay: ELISA, binding to immobilized integrin α5β1; conditions: dose-dependent, plates coated with 2 μg mL^−1
T1 construct: purchased Bio-Techne
Experimental: (§4) Vi ([49]) and its mutants were produced as reported ([14]). HUVECs were cultured as reported ([14], [50]).
as §1

uPAR = assay: Pull-down and Western blot, uPAR; format: binding, human (HUVEC lysates); conditions: HUVEC lysates; 500 nM B-Vi45-51, 1 h; Western blot
Experimental: as §2, §3

PAI-1 [2] = assay: Pull-down and Western blot, PAI-1; format: binding, human (HUVEC lysates); conditions: HUVEC lysates; 500 nM B-Vi45-51, 1 h; Western blot
Experimental: as §2, §3

[3] = tested on: HUVEC adhesion to fibronectin; assay: HUVEC adhesion to fibronectin; format: cell-based, human; conditions: 1 h
Experimental: HUVECs (43,000 cells cm^−2) were added and incubated at 37 °C for 1 h. Cells were washed twice and quantified by 3-(4,5-dimethylthiazol-2-yl)-2,5-diphenyltetrazolium bromide.

endothelial cells [4] = conditions: cited from earlier work
endothelial cells [5] = conditions: cited from earlier work; remark: listed apart in the source
integrin α5β1 [6] = biological target: T1, integrin α5β1; assay: Competitive ELISA, B-Vi45-51 binding to immobilized integrin α5β1; conditions: excess competitor
Experimental: as §4, §1

PAI-1 [7] = biological target: T2, PAI-1 (Homo sapiens, UniProt P05121); conditions: cited from earlier work
Excerpt: We recently identified two distinct functional motifs in the Vi molecule: the HGR and the HNLSSEM motifs. […] These discrep ...

integrin α5β1 [8] = biological target: T1, integrin α5β1; assay: Competitive ELISA, Vi binding to integrin α5β1; conditions: excess competitor
Experimental: as §4, §1

HUVEC monolayers = assay: Endothelial permeability (TEER); format: cell-based, human; conditions: 100 nM Vi or Vi45-51 for 1 h, then 50 ng mL^−1 VEGF; TEER 120 min; n = 6
Experimental: HUVECs were grown to confluency on 0.4 μm pore Transwells, treated with 100 nM Vi45-51 or Vi for 1 h, then stimulated with 50 ng mL^−1 VEGF. Transendothelial electrical resistance was recorded for 120 min using the EVOM2 meter (World Precision Instruments).

HUVECs [9] = assay: Endothelial cell proliferation (EdU); format: cell-based, human; conditions: 24 h; for Effect of ITGA5 knockdown on inhibition of endothelial proliferation: 100 nM Vi or Vi45-51, bFGF + VEGF, shITGA5 HUVEC vs WT; for Effect of anti-α5β1 antibody on inhibition of VEGF + bFGF-induced proliferation: 100 nM Vi or Vi45-51, 20 μg mL^−1 anti-α5β1
Experimental: As reported ([14]), HUVECs were serum-starved for 8 h and treated with 100 nM Vi45-51 or Vi, bFGF + VEGF, and 20 μg mL^−1 anti-α5β1 antibody in 20% fetal bovine serum for 24 h. EdU incorporation was detected with Azide Fluor 545 (Sigma).

[10] = tested on: Matrigel plug vascularization (Pecam1); assay: Matrigel plug assay; format: in vivo, male C57BL/6 mice; conditions: mice, s.c. plugs, 100 nM Vi or Vi45-51, bFGF + VEGF, 20 μg mL^−1 anti-α5β1; 7 days; Pecam1 mRNA
Experimental: As previously described ([14], [53], [54]), 6-week-old male C57BL/6 mice were subcutaneously injected with two 0.5 ml plugs supplemented with 300 ng mL^−1 bFGF and 100 ng mL^−1 VEGF, 100 nM Vi or Vi45-51, and 20 μg mL^−1 anti-integrin α5β1 antibody. After 7 days, plugs were collected, and Pecam1, relative to GAPDH, was quantified by quantitative PCR as reported ([14]). Procedures followed institutional ethical approval (Bioethics Committee, Instituto de Neurobiología, UNAM) and were in accordance with the Guide for the Care and Use of Laboratory Animals (http://www.ncbi.nlm.nih.gov/books/NBK54050/).

HUVECs [11] = assay: Tube formation on Matrigel; format: cell-based, human; conditions: 100 nM Vi or Vi45-51, 6 h; shITGA5 HUVEC vs WT
Experimental: HUVEC tubular network formation was evaluated as reported ([14], [51]). HUVECs were seeded on Matrigel and treated with 100 nM Vi or Vi45-51 for 6 h. Micrographs were analyzed by Angiogenesis Analyzer ([52]).

HUVECs [12] = assay: Matrigel invasion; format: cell-based, human; conditions: 100 nM Vi or Vi45-51, 16 h; shITGA5 HUVEC vs WT
Experimental: As reported ([14]), HUVECs on Matrigel-coated Transwells were treated with 100 nM of Vi45-51 or Vi. After 16 h, invading cells were counted.

HUVECs [13] = assay: Apoptosis (Cell Death Detection ELISA); format: cell-based, human; conditions: 100 nM Vi, 24 h; shITGA5 HUVEC vs WT
Experimental: As reported ([13]), HUVEC were treated with 100 nM Vi or Vi45-51 for 24 h, and apoptosis was analyzed using the Cell Death Detection ELISA kit (Roche).

PAI-1 knockout mice = conditions: cited from earlier work
Excerpt: The HGR motif is the sole antiangiogenic determinant of Vi, as its mutation leads to the loss of Vi’s antiangiogenic function ([14]). Given that Vi binds to integrin α5β1 via its HGR motif and that knockdown of ITGA5 abolishes the effects of Vi on endothelial cell proliferation, invasion, vascular permeability, and tube formation in vitro, while an antibody against integrin α5β1 suppresses the antiangiogenic effect of Vi in the in vivo Matrigel plug assay, integrin α5β1 emerges as the binding partner mediating the antiangiogenic activity of Vi. Integrin α5β1 is critical for angiogenesis ([16]) ...

PAI-1 [14] = biological target: T2, PAI-1; assay: ELISA, binding to immobilized PAI-1
Experimental: as §1

Question: For `CC[C@H](C)[C@H](NC(=O)[C@H](Cc1ccccc1)NC(=O)CNC(=O)[C@H](CCCNC(=N)N)NC(=O)CNC(=O)[C@H](Cc1c[nH]cn1)NC(=O)[C@@H](NC(=O)CCCC[C@@H]1SC[C@@H]2NC(=O)N[C@@H]21)[C@@H](C)O)C(=O)O` [B-Vi45-51] (Biotin-THGRGFI-OH; N-terminus and C-terminus assumed), which “Binding to immobilized PAI-1-uPA complex” value (PAI-1-uPA complex) is on record?
Answer: not to PAI-1 or the PAI-1-uPA complex

Question: What about the “Pull-down of integrin α5” value (integrin α5; HUVEC lysates, 500 nM B-Vi45-51, 1 h, Dynabeads Streptavidin T1, Western blot, ∼145 kDa) of the same compound?
Answer: Integrin α5 was precipitated

Question: And the “Effect of VEGF + bFGF on pull-down of integrin α5” value (integrin α5; HUVECs, 500 nM B-Vi45-51, 20 ng mL^−1 bFGF, 25 ng mL^−1 VEGF, 1 h)?
Answer: did not affect binding

Question: What about the “Binding to immobilized integrin α5β1” value (integrin α5β1 [1]) of the same compound?
Answer: dose-dependent binding

Question: And the “Pull-down of uPAR” value (uPAR)?
Answer: failed to pull down

Question: And the “Pull-down of PAI-1” value (PAI-1 [2])?
Answer: failed to pull down

Question: For `N=C(N)NCCC[C@H](N)C(=O)NCC(=O)N[C@@H](CC(=O)O)C(=O)O` [RGD, reference compound], which IC50 ([3]; dose–response, fibronectin 1 μg cm^−2, 37 °C, MTT read-out, nonlinear regression (r^2 > 0.8), at least three independent experiments, read-out: IC50, inhibition of HUVEC adhesion to fibronectin) is on record?
Answer: 61.3 nM

Question: What does the source list for “Ac-PHSCN-NH2 [ATN-161, PHSRN-based peptide (Ac-PHSCN-NH2), reference compound]”?
Answer: Induction of apoptosis (anoikis) (endothelial cells [4]): induce apoptosis through anoikis; Disruption of endothelial adhesion (endothelial cells [5]): disrupt endothelial adhesion

Question: With “H46A: alanine-scanning mutant peptide, alanine substitution at H46 (TAGRGFI)” as the compound, how does the “Inhibition of B-Vi45-51 binding to integrin α5β1” value (from here on “Inhibition of B-Vi45-51 binding”) (integrin α5β1 [6]) read?
Answer: abolished inhibition

Question: Which “Apoptosis induction via uPAR-dependent mechanism” value (endothelial cells [4]) does the source give for HNLSSEM [HNLSSEM motif] here?
Answer: induces endothelial apoptosis through a uPAR-dependent mechanism

Question: And the “Binding to PAI-1 (literature)” value (PAI-1 [7])?
Answer: mediates Vi binding to PAI-1

Question: For “R48A: Vi45-51 mutated by alanine in R48 (THGAGFI)”, which “Inhibition of B-Vi45-51 binding” value (integrin α5β1 [6]) is on record?
Answer: abolished inhibition

Question: And the “HUVEC adhesion to fibronectin, dose–response” value ([3]; fibronectin 1 μg cm^−2, 37 °C)?
Answer: did not

Question: With THGR [HGR-containing tetrapeptide THGR] as the compound, how does the “Inhibition of Vi binding to integrin α5β1” value (integrin α5β1 [8]) read?
Answer: blocked Vi–integrin interaction

Question: For THGRGFI [Vi45-51], which “Effect of ITGA5 silencing on inhibition of VEGF-induced permeability” value (HUVEC monolayers) is on record?
Answer: ablated the inhibitory effect

Question: And the “Effect of ITGA5 knockdown on inhibition of endothelial proliferation” value (HUVECs [9])?
Answer: abolished the inhibitory effects

Question: And the “Effect of anti-α5β1 antibody on inhibition of VEGF + bFGF-induced proliferation” value (HUVECs [9])?
Answer: prevented the inhibitory effects

Question: What about the “Effect of anti-α5β1 antibody on inhibition of Matrigel plug vascularization” value [10] of the same compound?
Answer: prevented the inhibitory effects

Question: And the “Effect of ITGA5 knockdown on inhibition of tube formation” value (HUVECs [11])?
Answer: abolished the inhibitory effects

Question: And the “Effect of ITGA5 knockdown on inhibition of invasion” value (HUVECs [12])?
Answer: abolished the inhibitory effects

Question: What about the “Inhibition of B-Vi45-51 binding” value (integrin α5β1 [6]) of the same compound?
Answer: inhibited B-Vi45-51 binding

Question: What about the “HUVEC adhesion to fibronectin at 1 μM” value ([3]; 1 μM, fibronectin 1 μg cm^−2, 37 °C, Fig. 4C) of the same compound?
Answer: enhanced fibronectin-mediated adhesion

Question: What about the EC50 [3] of the same compound?
Answer: 4.55 nM

Question: And the “HUVEC adhesion to fibronectin, dose–response” value ([3]; fibronectin 1 μg cm^−2, 37 °C)?
Answer: increased the adhesion in a dose-dependent manner

Question: Which “Induction of apoptosis (anoikis)” value (endothelial cells [4]) does the source give for cilengitide [reference compound] here?
Answer: induce apoptosis through anoikis

Question: And the “Disruption of endothelial adhesion” value (endothelial cells [5])?
Answer: disrupt endothelial adhesion

Question: Which “Effect of ITGA5 silencing on inhibition of VEGF-induced permeability” value (HUVEC monolayers) does the source give for vasoinhibin [Vi] here?
Answer: ablated the inhibitory effect

Question: What about the Kd (PAI-1-uPA complex; immobilized PAI-1-uPA complex, at least three independent experiments) of the same compound?
Answer: 406 nM

Question: And the “Binding to immobilized PAI-1-uPA complex” value (PAI-1-uPA complex)?
Answer: bound all three

Question: And the “Effect of antibodies against integrin α5β1 on Vi-induced endothelial cell apoptosis” value (endothelial cells [4])?
Answer: partially prevented

Question: What about the “Effect of ITGA5 knockdown on Vi-induced apoptosis” value (HUVECs [13]) of the same compound?
Answer: did not abolish Vi-induced apoptosis; in fact, it was even slightly increased; also recorded: did not prevent, but slightly enhanced

Question: And the “Effect of ITGA5 knockdown on inhibition of endothelial proliferation” value (HUVECs [9])?
Answer: abolished the inhibitory effects

Question: And the “Effect of anti-α5β1 antibody on inhibition of VEGF + bFGF-induced proliferation” value (HUVECs [9])?
Answer: prevented the inhibitory effects

Question: What about the “Antiangiogenic and antitumor effects in PAI-1 knockout mice” value (PAI-1 knockout mice) of the same compound?
Answer: lost in PAI-1 knockout mice

Question: What about the “Binding to immobilized integrin α5β1” value (integrin α5β1 [1]) of the same compound?
Answer: bound all three

Question: What about the Kd (PAI-1 [14]; immobilized PAI-1, at least three independent experiments) of the same compound?
Answer: 528 nM

Question: And the “Binding to immobilized PAI-1” value (PAI-1 [14]; plates coated with 2 μg mL^−1)?
Answer: bound all three

Question: What about the “Effect of anti-α5β1 antibody on inhibition of Matrigel plug vascularization” value [10] of the same compound?
Answer: prevented the inhibitory effects

Question: What about the “Effect of ITGA5 knockdown on inhibition of tube formation” value (HUVECs [11]) of the same compound?
Answer: abolished the inhibitory effects

Question: And the “Effect of ITGA5 knockdown on inhibition of invasion” value (HUVECs [12])?
Answer: abolished the inhibitory effects

— paper PMC12795676, “Integrin α5β1 mediates the inhibitory effects of vasoinhibin on angiogenesis and vascular permeability [drawing 1]” (The Journal of Biological Chemistry, 2025)
